# PubChem BioAssay (NCI)
#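 Method: 48-hour compound exposure of cells in 96-well plates, five concentrations, linear interpolation of endpoints. The concentration for 50% growth inhibition is given as GI50. Definition used: TGI = concentration required for complete inhibition of growth.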
# Tested on: SF-539 CNS
# Assay: NCI-60 cell line screen, 48 h
row,Structure (SMILES),TGI
1,O=C1NC2c3c(I)sc(I)c3/C(=N\O)C2O1 (configuration not stated),42.6 µM
2,O=C(NCCOC(=O)OCCNC(=O)NC1CCCCC1)NC1CCCCC1,> 100 µM
3,C[C@]1(O)CC[C@H]2[C@@H]3CCc4cc(O)ccc4[C@H]3CC[C@@]21C,2.27 µM

# Tested on: OVCAR-5 ovarian
# Assay: NCI-60 cell line screen, 48 h
row,Structure (SMILES),TGI
1,COC(=O)[C@]12CC[C@H]3CN(C(=O)OCc4ccccc4)[C@H]([C@H]31)[C@H](c1ccco1)N2,> 100 µM
2,O=C(C=P(c1ccccc1)(c1ccccc1)c1ccccc1)c1ccc(-c2cccc([N+](=O)[O-])c2)cc1,14.9 µM
3,O=C1NC2c3c(I)sc(I)c3/C(=N\O)C2O1 (configuration not stated),> 100 µM
4,O=C(NCCOC(=O)OCCNC(=O)NC1CCCCC1)NC1CCCCC1,> 100 µM
5,C[C@]1(O)CC[C@H]2[C@@H]3CCc4cc(O)ccc4[C@H]3CC[C@@]21C,> 100 µM

# Tested on: SK-MEL-2 melanoma
# Assay: NCI-60 cell line screen, 48 h
row,Structure (SMILES),TGI
1,COC(=O)[C@]12CC[C@H]3CN(C(=O)OCc4ccccc4)[C@H]([C@H]31)[C@H](c1ccco1)N2,> 100 µM
2,O=C(C=P(c1ccccc1)(c1ccccc1)c1ccccc1)c1ccc(-c2cccc([N+](=O)[O-])c2)cc1,3.78 µM
3,O=C1NC2c3c(I)sc(I)c3/C(=N\O)C2O1 (configuration not stated),> 100 µM
4,O=C(NCCOC(=O)OCCNC(=O)NC1CCCCC1)NC1CCCCC1,> 100 µM
5,C[C@]1(O)CC[C@H]2[C@@H]3CCc4cc(O)ccc4[C@H]3CC[C@@]21C,> 100 µM

# Tested on: SW-620 colon
# Assay: NCI-60 cell line screen, 48 h
row,Structure (SMILES),TGI
1,COC(=O)[C@]12CC[C@H]3CN(C(=O)OCc4ccccc4)[C@H]([C@H]31)[C@H](c1ccco1)N2,> 100 µM
2,O=C(C=P(c1ccccc1)(c1ccccc1)c1ccccc1)c1ccc(-c2cccc([N+](=O)[O-])c2)cc1,14.5 µM
3,O=C1NC2c3c(I)sc(I)c3/C(=N\O)C2O1 (configuration not stated),60.6 µM
4,O=C(NCCOC(=O)OCCNC(=O)NC1CCCCC1)NC1CCCCC1,> 100 µM
5,C[C@]1(O)CC[C@H]2[C@@H]3CCc4cc(O)ccc4[C@H]3CC[C@@]21C,> 100 µM

# Tested on: SF-268 CNS
# Assay: NCI-60 cell line screen, 48 h
row,Structure (SMILES),TGI
1,COC(=O)[C@]12CC[C@H]3CN(C(=O)OCc4ccccc4)[C@H]([C@H]31)[C@H](c1ccco1)N2,> 100 µM
2,O=C(C=P(c1ccccc1)(c1ccccc1)c1ccccc1)c1ccc(-c2cccc([N+](=O)[O-])c2)cc1,> 100 µM
3,O=C1NC2c3c(I)sc(I)c3/C(=N\O)C2O1 (configuration not stated),67.8 µM
4,O=C(NCCOC(=O)OCCNC(=O)NC1CCCCC1)NC1CCCCC1,> 100 µM
5,C[C@]1(O)CC[C@H]2[C@@H]3CCc4cc(O)ccc4[C@H]3CC[C@@]21C,68.3 µM

# Tested on: HOP-92 NSCLC
# Assay: NCI-60 cell line screen, 48 h
row,Structure (SMILES),TGI
1,COC(=O)[C@]12CC[C@H]3CN(C(=O)OCc4ccccc4)[C@H]([C@H]31)[C@H](c1ccco1)N2,> 100 µM
2,O=C(C=P(c1ccccc1)(c1ccccc1)c1ccccc1)c1ccc(-c2cccc([N+](=O)[O-])c2)cc1,6.92 µM
3,O=C1NC2c3c(I)sc(I)c3/C(=N\O)C2O1 (configuration not stated),68.1 µM
4,O=C(NCCOC(=O)OCCNC(=O)NC1CCCCC1)NC1CCCCC1,79 µM
5,C[C@]1(O)CC[C@H]2[C@@H]3CCc4cc(O)ccc4[C@H]3CC[C@@]21C,67.8 µM

# Tested on: NCI-H226 lung
# Assay: NCI-60 cell line screen, 48 h
row,Structure (SMILES),TGI
1,COC(=O)[C@]12CC[C@H]3CN(C(=O)OCc4ccccc4)[C@H]([C@H]31)[C@H](c1ccco1)N2,> 100 µM
2,O=C(C=P(c1ccccc1)(c1ccccc1)c1ccccc1)c1ccc(-c2cccc([N+](=O)[O-])c2)cc1,19.9 µM
3,O=C1NC2c3c(I)sc(I)c3/C(=N\O)C2O1 (configuration not stated),> 100 µM
4,O=C(NCCOC(=O)OCCNC(=O)NC1CCCCC1)NC1CCCCC1,> 100 µM

# Tested on: 786-0 renal
# Assay: NCI-60 cell line screen, 48 h
row,Structure (SMILES),TGI
1,COC(=O)[C@]12CC[C@H]3CN(C(=O)OCc4ccccc4)[C@H]([C@H]31)[C@H](c1ccco1)N2,> 100 µM
2,O=C(C=P(c1ccccc1)(c1ccccc1)c1ccccc1)c1ccc(-c2cccc([N+](=O)[O-])c2)cc1,20.8 µM
3,O=C1NC2c3c(I)sc(I)c3/C(=N\O)C2O1 (configuration not stated),57.1 µM
4,O=C(NCCOC(=O)OCCNC(=O)NC1CCCCC1)NC1CCCCC1,> 100 µM
5,C[C@]1(O)CC[C@H]2[C@@H]3CCc4cc(O)ccc4[C@H]3CC[C@@]21C,> 100 µM

# Tested on: NCI/ADR-RES ovarian
# Assay: NCI-60 cell line screen, 48 h
row,Structure (SMILES),TGI
1,COC(=O)[C@]12CC[C@H]3CN(C(=O)OCc4ccccc4)[C@H]([C@H]31)[C@H](c1ccco1)N2,51.7 µM
2,O=C(C=P(c1ccccc1)(c1ccccc1)c1ccccc1)c1ccc(-c2cccc([N+](=O)[O-])c2)cc1,25.1 µM
3,O=C1NC2c3c(I)sc(I)c3/C(=N\O)C2O1 (configuration not stated),47.7 µM
4,O=C(NCCOC(=O)OCCNC(=O)NC1CCCCC1)NC1CCCCC1,> 100 µM
5,C[C@]1(O)CC[C@H]2[C@@H]3CCc4cc(O)ccc4[C@H]3CC[C@@]21C,> 100 µM

# Tested on: T-47D breast
# Assay: NCI-60 cell line screen, 48 h
row,Structure (SMILES),TGI
1,COC(=O)[C@]12CC[C@H]3CN(C(=O)OCc4ccccc4)[C@H]([C@H]31)[C@H](c1ccco1)N2,> 100 µM
2,O=C(C=P(c1ccccc1)(c1ccccc1)c1ccccc1)c1ccc(-c2cccc([N+](=O)[O-])c2)cc1,27.1 µM
3,O=C1NC2c3c(I)sc(I)c3/C(=N\O)C2O1 (configuration not stated),> 100 µM
4,O=C(NCCOC(=O)OCCNC(=O)NC1CCCCC1)NC1CCCCC1,> 100 µM
5,C[C@]1(O)CC[C@H]2[C@@H]3CCc4cc(O)ccc4[C@H]3CC[C@@]21C,> 100 µM

# Tested on: EKVX NSCLC
# Assay: NCI-60 cell line screen, 48 h
row,Structure (SMILES),TGI
1,COC(=O)[C@]12CC[C@H]3CN(C(=O)OCc4ccccc4)[C@H]([C@H]31)[C@H](c1ccco1)N2,> 100 µM
2,O=C(C=P(c1ccccc1)(c1ccccc1)c1ccccc1)c1ccc(-c2cccc([N+](=O)[O-])c2)cc1,11.7 µM
3,O=C1NC2c3c(I)sc(I)c3/C(=N\O)C2O1 (configuration not stated),35.1 µM
4,O=C(NCCOC(=O)OCCNC(=O)NC1CCCCC1)NC1CCCCC1,> 100 µM
5,C[C@]1(O)CC[C@H]2[C@@H]3CCc4cc(O)ccc4[C@H]3CC[C@@]21C,9.08 µM

# Tested on: HCT-116 colon
# Assay: NCI-60 cell line screen, 48 h
Structure (SMILES),TGI,GI50
COC(=O)[C@]12CC[C@H]3CN(C(=O)OCc4ccccc4)[C@H]([C@H]31)[C@H](c1ccco1)N2,> 100 µM,
O=C(C=P(c1ccccc1)(c1ccccc1)c1ccccc1)c1ccc(-c2cccc([N+](=O)[O-])c2)cc1,6.24 µM,
O=C1NC2c3c(I)sc(I)c3/C(=N\O)C2O1 (configuration not stated),75.4 µM,
O=C(NCCOC(=O)OCCNC(=O)NC1CCCCC1)NC1CCCCC1,> 100 µM,
C[C@]1(O)CC[C@H]2[C@@H]3CCc4cc(O)ccc4[C@H]3CC[C@@]21C,> 100 µM,0.703 µM

# Tested on: OVCAR-3 ovarian
# Assay: NCI-60 cell line screen, 48 h
Structure (SMILES),TGI,GI50
COC(=O)[C@]12CC[C@H]3CN(C(=O)OCc4ccccc4)[C@H]([C@H]31)[C@H](c1ccco1)N2,> 100 µM,
O=C(C=P(c1ccccc1)(c1ccccc1)c1ccccc1)c1ccc(-c2cccc([N+](=O)[O-])c2)cc1,9.69 µM,
O=C1NC2c3c(I)sc(I)c3/C(=N\O)C2O1 (configuration not stated),40.2 µM,
O=C(NCCOC(=O)OCCNC(=O)NC1CCCCC1)NC1CCCCC1,> 100 µM,
C[C@]1(O)CC[C@H]2[C@@H]3CCc4cc(O)ccc4[C@H]3CC[C@@]21C,42.9 µM,0.663 µM

# Tested on: A549 NSCLC
# Assay: NCI-60 cell line screen, 48 h
row,Structure (SMILES),TGI
1,COC(=O)[C@]12CC[C@H]3CN(C(=O)OCc4ccccc4)[C@H]([C@H]31)[C@H](c1ccco1)N2,> 100 µM
2,O=C(C=P(c1ccccc1)(c1ccccc1)c1ccccc1)c1ccc(-c2cccc([N+](=O)[O-])c2)cc1,12.7 µM
3,O=C1NC2c3c(I)sc(I)c3/C(=N\O)C2O1 (configuration not stated),> 100 µM
4,O=C(NCCOC(=O)OCCNC(=O)NC1CCCCC1)NC1CCCCC1,> 100 µM
5,C[C@]1(O)CC[C@H]2[C@@H]3CCc4cc(O)ccc4[C@H]3CC[C@@]21C,77.6 µM

# Tested on: HS 578T breast
# Assay: NCI-60 cell line screen, 48 h
row,Structure (SMILES),TGI
1,COC(=O)[C@]12CC[C@H]3CN(C(=O)OCc4ccccc4)[C@H]([C@H]31)[C@H](c1ccco1)N2,> 100 µM
2,O=C(C=P(c1ccccc1)(c1ccccc1)c1ccccc1)c1ccc(-c2cccc([N+](=O)[O-])c2)cc1,22.4 µM
3,O=C1NC2c3c(I)sc(I)c3/C(=N\O)C2O1 (configuration not stated),70.4 µM
